# Experimental data taken from the supplement of paper PMC11061612.
# Experiments:
# Assay in all cases: Bliss excess, mean over the matrix (fraction); higher = more synergy
# A704 (Kidney Carcinoma) = tested on: A704 (Kidney Carcinoma)
# Method in brief: (§1)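 Bliss excess equals the observed combination effect minus the expected value EA + EB − EA·EB, where EA and EB are the effects of each agent alone. Combination Emax is the second-highest inhibition within the matrix. Inhibition was scaled from CellTiter-Glo 2.0 luminescence, with 0 set by vehicle wells and 1 by blank wells, after 72 hours of two-drug dosing of cells plated in 1536-well plates.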
# BT-20 (Breast Carcinoma) = tested on: BT-20 (Breast Carcinoma)
# Method in brief: as §1
# [1] = tested on: DG-75 (Burkitt's Lymphoma)
# Method in brief: as §1
# [2] = tested on: EBC-1 (Squamous Cell Lung Carcinoma)
# Method in brief: as §1
# EW-18 (Ewing's Sarcoma) = tested on: EW-18 (Ewing's Sarcoma)
# Method in brief: as §1
# GOTO (Neuroblastoma) = tested on: GOTO (Neuroblastoma)
# Method in brief: as §1
# IMR-5 (Neuroblastoma) = tested on: IMR-5 (Neuroblastoma)
# Method in brief: as §1
# [3] = tested on: KP-2 (Pancreatic Carcinoma)
# Method in brief: as §1
# [4] = tested on: KU-19-19 (Bladder Carcinoma)
# Method in brief: as §1
# [5] = tested on: LOU-NH91 (Squamous Cell Lung Carcinoma)
# Method in brief: as §1
# [6] = tested on: NCI-H2347 (Lung Adenocarcinoma)
# Method in brief: as §1
# [7] = tested on: NCI-H322M (Lung Adenocarcinoma)
# Method in brief: as §1
# [8] = tested on: OCUM-1 (Gastric Carcinoma)
# Method in brief: as §1
# [9] = tested on: OVISE (Ovarian Carcinoma)
# Method in brief: as §1
# [10] = tested on: PFSK-1 (Other Solid Carcinomas)
# Method in brief: as §1
# RPMI-7951 (Melanoma) = tested on: RPMI-7951 (Melanoma)
# Method in brief: as §1
# [11] = tested on: SCC-3 (B-Cell Non-Hodgkin's Lymphoma)
# Method in brief: as §1
# [12] = tested on: SCC-9 (Oral Cavity Carcinoma)
# Method in brief: as §1
# [13] = tested on: SNU-C1 (Colorectal Carcinoma)
# Method in brief: as §1
# [14] = tested on: TGBC11TKB (Gastric Carcinoma)
# Method in brief: as §1
SMILES,Bliss excess (A704 (Kidney Carcinoma)),Bliss excess (BT-20 (Breast Carcinoma)),Bliss excess [1],Bliss excess [2],Bliss excess (EW-18 (Ewing's Sarcoma)),Bliss excess (GOTO (Neuroblastoma)),Bliss excess (IMR-5 (Neuroblastoma)),Bliss excess [3],Bliss excess [4],Bliss excess [5],Bliss excess [6],Bliss excess [7],Bliss excess [8],Bliss excess [9],Bliss excess [10],Bliss excess (RPMI-7951 (Melanoma)),Bliss excess [11],Bliss excess [12],Bliss excess [13],Bliss excess [14]
"Cc1c2c(nn1C)CSCc1cc(n(C)n1)CSc1cc(c3ccccc3c1)OCCCc1c(C(=O)O)n(C)c3c-2c(Cl)ccc13 [AZD5991] + Cn1cnc2c(F)c(Nc3ccc(Br)cc3Cl)c(C(=O)NOCCO)cc21 [Selumetinib] (first compound max 1 µM, 7x7, partner max 3 µM)",-0.106,0.153,-0.0023,-0.0019,0.002,0.0177,-0.0154,0.137,0.0759,-0.025,-0.0006,0.0308,-0.0034,-0.0588,0.0395,-0.0072,0.0783,0.0245,0.0034,0.0592
"NC1(C(=O)N[C@@H](CCO)c2ccc(Cl)cc2)CCN(c2ncnc3[nH]ccc23)CC1 [Capivasertib] + CC(=O)c1c(C)c2cnc(Nc3ccc(N4CCNCC4)cn3)nc2n(C2CCCC2)c1=O [Palbociclib] (first compound max 10 µM, 7x7, partner max 10 µM)",-0.0413,-0.0038,0.0406,0.06,-0.0276,0.0599,0.0514,-0.0261,0.0041,-0.0617,-0.0459,0.0072,-0.0194,-0.0235,0.0014,0.0186,0.0001,0.0004,-0.0506,-0.0358
"NC1(C(=O)N[C@@H](CCO)c2ccc(Cl)cc2)CCN(c2ncnc3[nH]ccc23)CC1 [Capivasertib] + CC(C)n1c(=O)n(C)c2cnc3cc(F)c(-c4ccc(OCCCN5CCCCC5)nc4)cc3c21 [AZD1390] (first compound max 10 µM, 7x7, partner max 0.3 µM)",-0.0703,-0.0315,-0.0006,-0.0046,-0.084,-0.0465,-0.0487,-0.0612,-0.0939,-0.0997,-0.0524,-0.0166,-0.039,-0.042,-0.0598,-0.0748,-0.0169,-0.027,-0.068,-0.0598
"NC1(C(=O)N[C@@H](CCO)c2ccc(Cl)cc2)CCN(c2ncnc3[nH]ccc23)CC1 [Capivasertib] + CCN(CCO)CCCOc1ccc2c(Nc3cc(CC(=O)Nc4cccc(F)c4)[nH]n3)ncnc2c1 [AZD2811] (first compound max 10 µM, 7x7, partner max 1 µM)",-0.0375,-0.0003,0.04,0.0429,-0.0358,0.0047,-0.0144,-0.0433,0.0011,-0.0075,-0.0369,0.0203,0.0378,0.0015,-0.027,-0.0886,0.0443,-0.0281,-0.0407,-0.0987
"NC1(C(=O)N[C@@H](CCO)c2ccc(Cl)cc2)CCN(c2ncnc3[nH]ccc23)CC1 [Capivasertib] + COc1nnc2ccc(N3CCC(c4ccc(OCCN5CCN(C)C(=O)[C@H]5C)cc4)CC3)nn12 [AZD5153] (first compound max 10 µM, 7x7, partner max 1 µM)",0.0204,0.0023,-0.0133,0.0374,0.0119,0.032,0.0285,0.0358,0.0272,-0.025,-0.033,-0.0144,0.0318,-0.0055,-0.0158,0.0498,0.0248,0.0627,-0.0147,-0.0144
"NC1(C(=O)N[C@@H](CCO)c2ccc(Cl)cc2)CCN(c2ncnc3[nH]ccc23)CC1 [Capivasertib] + C[C@@H]1COCCN1C2=NC(=NC(=C2)C3(CC3)[S@](=N)(=O)C)C4=C5C=CNC5=NC=C4 [AZD6738] (first compound max 10 µM, 7x7, partner max 10 µM)",-0.0571,-0.0442,-0.0138,-0.0315,-0.0504,-0.0379,0.019,-0.0279,-0.0748,-0.0192,-0.0218,-0.0797,-0.0088,-0.0459,-0.0956,-0.0632,-0.0037,-0.0111,-0.0534,-0.09
"NC1(C(=O)N[C@@H](CCO)c2ccc(Cl)cc2)CCN(c2ncnc3[nH]ccc23)CC1 [Capivasertib] + Cn1cnc2c(F)c(Nc3ccc(Br)cc3Cl)c(C(=O)NOCCO)cc21 [Selumetinib] (first compound max 10 µM, 7x7, partner max 10 µM)",-0.0098,0.0036,0.0439,0.0557,-0.0219,0.0355,0.0034,0.0094,-0.0364,-0.0027,-0.0158,0.0035,-0.0299,-0.0063,0.0717,-0.0415,0.0627,0.145,-0.0085,0.0387
